Measured values from patent US9006455B2 (Bristol-Myers Squibb Company, priority 2009, dated 2015).
Like-named read-outs stand apart in the source and are kept apart here.

Test system: HCV 1b genotype
Experiment: HCV Replicon assay (HCV 1b genotype)
Assay type: cell-based
Details: Hepatitis C virus, HCV 1b genotype replicon
Protocol: An HCV Replicon assay was utilized in the present disclosure, and was prepared, conducted and validated as described in commonly owned PCT/US2006/022197 and in O'Boyle et al., Antimicrob. Agents Chemother., 49(4):1346-1353 (April 2005). Assay methods incorporating luciferase reporters have also been used as described (Apath.com).
HCV-neo replicon cells and replicon cells containing resistance substitutions in the NS5A region were used to test the currently described family of compounds. The compounds were determined to have differing degrees of reduced inhibitory activity on cells containing mutations vs. the corresponding inhibitory potency against wild-type cells. Thus, the compounds of the present disclosure can be effective in inhibiting the function of the HCV NS5A protein and are understood to be as effective in combinations as previously described in application PCT/US2006/022197 and commonly owned WO 04/014852. It should be understood that the compounds of the present disclosure can inhibit multiple genotypes of HCV. […] In one embodiment, compounds of the present disclosure are inhibitory versus 1a, 1b, 2a, 2b, 3a, 4a, and 5a genotypes.

[1] = read-out: Range (EC50 values against HCV 1b)

SMILES | EC50 [1] [nM] | EC50 (read-out: EC50) [nM]
CCN(CC)[C@@H](C(=O)N1[C@@H]2C[C@@H]2C[C@H]1c1nc2ccc(-c3ccc4cc(-c5ccc6nc([C@@H]7C[C@H]8C[C@H]8N7C(=O)[C@@H](c7ccccc7)N(CC)CC)[nH]c6c5)ccc4c3)cc2[nH]1)c1ccccc1 [Example 19, (1R)-2-((1R,3S,5R)-3-(5-(6-(2-((1R,3S,5R)-2-((2R)-2-(Diethylamino)-2-phenylacetyl)-2-azabicyclo[3.1.0]hex-3-yl)-1H-benzimidazol-6-yl)-2-naphthyl)-1H-benzimidazol-2-yl)-2-azabicyclo[3.1.0]hex-2-yl)-N,N-diethyl-2-oxo-1-phenylethanamine] | 0.0101 to 1 | 
COC(=O)N[C@H](C(=O)N1CCC[C@@H]1c1nc2ncc(-c3ccc4cc(-c5cnc6nc([C@@H]7CCCN7C(=O)[C@@H](NC(=O)OC)C(C)C)[nH]c6c5)ccc4c3)cc2[nH]1)C(C)C [Example 23, Methyl((1S)-1-(((2R)-2-(6-(6-(2-((2S)-1-((2S)-2-((methoxycarbonyl)amino)-3-methylbutanoyl)-2-pyrrolidinyl)-1H-imidazo[4,5-b]pyridin-6-yl)-2-naphthyl)-1H-imidazo[4,5-b]pyridin-2-yl)-1-pyrrolidinyl)carbonyl)-2-methylpropyl)carbamate] | 0.0101 to 1 | 0.888
COC(=O)N[C@@H](C)C(=O)N1CCC[C@H]1c1nc2cc(-c3ccc4ccc(-c5ccc6nc([C@@H]7CCCN7C(=O)[C@H](C)NC(=O)OC)[nH]c6c5)cc4c3)ccc2[nH]1 [Example 13, Methyl((1S)-2-((2S)-2-(5-(7-(2-((2S)-1-(N-(methoxycarbonyl)-L-alanyl)-2-pyrrolidinyl)-1H-benzimidazol-5-yl)-2-naphthyl)-1H-benzimidazol-2-yl)-1-pyrrolidinyl)-1-methyl-2-oxoethyl)carbamate] | 1.01 to 1000 | 
COC(=O)N[C@H](C(=O)N[C@@H](C)c1ncc(-c2ccc(-c3ccc4cc(-c5cnc([C@H](C)NC(=O)[C@@H](NC(=O)OC)C(C)C)[nH]5)ccc4c3)cc2)[nH]1)C(C)C [Example 124, Methyl((1S)-1-(((1S)-1-(4-(4-(6-(2-((1S)-1-(((2S)-2-((methoxycarbonyl)amino)-3-methylbutanoyl)amino)ethyl)-1H-imidazol-4-yl)-2-naphthyl)phenyl)-1H-imidazol-2-yl)ethyl)carbamoyl)-2-methylpropyl)carbamate] | 0.0101 to 1 | 
COC(=O)N[C@H](C(=O)N1CCC[C@H]1c1nc2ccc(-c3ccc4cc(-c5ccc6nc([C@@H]7CCCN7C(=O)[C@@H](NC(=O)OC)C7CCOCC7)[nH]c6c5)ccc4c3)cc2[nH]1)C1CCOCC1 [Example 26, Dimethyl(2,6-naphthalenediylbis(1H-benzimidazole-5,2-diyl(2S)-2,1-pyrrolidinediyl((1S)-2-oxo-1-(tetrahydro-2H-pyran-4-yl)-2,1-ethanediyl)))biscarbamate] | 0.0101 to 1 | 
COC(=O)N[C@H](C(=O)N1CCC[C@H]1c1ncc(-c2ccc(-c3ccc4cc(-c5ccc6nc([C@@H]7CCCN7C(=O)[C@@H](NC(=O)OC)C(C)C)[nH]c6c5)ccc4c3)cc2)[nH]1)C(C)C [Example 3, Methyl((1S)-1-(((2S)-2-(4-(4-(6-(2-(1-((2S)-2-((methoxycarbonyl)amino)-3-methylbutanoyl)-2-pyrrolidinyl)-1H-benzimidazol-5-yl)-2-naphthyl)phenyl)-1H-imidazol-2-yl)-1-pyrrolidinyl)carbonyl)-2-methylpropyl)carbamate] | 0.0101 to 1 | 
COC(=O)N[C@H](C(=O)N1CCCC[C@H]1c1nc(-c2ccc(-c3ccc4cc(-c5c[nH]c([C@@H]6CCCCN6C(=O)[C@@H](NC(=O)OC)C(C)C)n5)ccc4c3)cc2)c[nH]1)C(C)C [Example 118, Methyl((1S)-1-(((2S)-2-(4-(4-(6-(2-((2S)-1-((2S)-2-((methoxycarbonyl)amino)-3-methylbutanoyl)-2-piperidinyl)-1H-imidazol-4-yl)-2-naphthyl)phenyl)-1H-imidazol-2-yl)-1-piperidinyl)carbonyl)-2-methylpropyl)carbamate] | 0.0101 to 1 | 0.0374
COC(=O)N[C@H](C(=O)N1C(c2ncc(-c3ccc4cc(-c5cccc(-c6c[nH]c([C@@H]7C[C@H]8C[C@H]8N7C(=O)[C@@H](NC(=O)OC)C(C)C)n6)c5)ccc4c3)[nH]2)CC2CC21)C(C)C (stereo in doubt) [Example 51, Methyl((1S)-1-(((1S,3R,5S)-3-(4-(6-(3-(2-((1R,3S,5R)-2-((2S)-2-((methoxycarbonyl)amino)-3-methylbutanoyl)-2-azabicyclo[3.1.0]hex-3-yl)-1H-imidazol-4-yl)phenyl)-2-naphthyl)-1H-imidazol-2-yl)-2-azabicyclo[3.1.0]hex-2-yl)carbonyl)-2-methylpropyl)carbamate] | 0.0101 to 1 | 
COC(=O)N[C@H](C(=O)N1[C@@H]2C[C@@H]2C[C@H]1c1ncc(-c2ccc(-c3ccc4nc(-c5cnc([C@@H]6C[C@H]7C[C@H]7N6C(=O)[C@@H](NC(=O)OC)C(C)C)[nH]5)ccc4c3)cc2)[nH]1)C(C)C [Example 80, methyl((1S)-1-(((1R,3S,5R)-3-(4-(6-(4-(2-((1R,3S,5R)-2-((2S)-2-((methoxycarbonyl)amino)-3-methylbutanoyl)-2-azabicyclo[3.1.0]hex-3-yl)-1H-imidazol-4-yl)phenyl)-2-quinolinyl)-1H-imidazol-2-yl)-2-azabicyclo[3.1.0]hex-2-yl)carbonyl)-2-methylpropyl)carbamate] |  | 0.00108
COC(=O)N[C@H](C(=O)N1[C@@H]2C[C@@H]2C[C@H]1c1ncc(-c2ccc3nc(-c4ccc5nc([C@@H]6C[C@H]7C[C@H]7N6C(=O)[C@@H](NC(=O)OC)C6CCOCC6)[nH]c5c4)cnc3c2)[nH]1)C1CCOCC1 [Example 53, Methyl((1S)-2-((1R,3S,5R)-3-(4-(2-(2-((1R,3S,5R)-2-((2S)-2-((methoxycarbonyl)amino)-2-(tetrahydro-2H-pyran-4-yl)acetyl)-2-azabicyclo[3.1.0]hex-3-yl)-1H-benzimidazol-5-yl)-6-quinoxalinyl)-1H-imidazol-2-yl)-2-azabicyclo[3.1.0]hex-2-yl)-2-oxo-1-(tetrahydro-2H-pyran-4-yl)ethyl)carbamate] | 1.01 to 1000 | 1.81
COC(=O)N[C@H](C(=O)N1C[C@@H](C)C[C@H]1c1ncc(-c2ccc(-c3ccc4cc(-c5cnc([C@@H]6C[C@H](C)CN6C(=O)[C@@H](NC(=O)OC)C6CCOCC6)[nH]5)ccc4c3)cc2)[nH]1)C1CCOCC1 [Example 129, Methyl(2-((2S,4S)-2-(4-(4-(6-(2-((2S,4S)-1-(((methoxycarbonyl)amino)(tetrahydro-2H-pyran-4-yl)acetyl)-4-methyl-2-pyrrolidinyl)-1H-imidazol-4-yl)-2-naphthyl)phenyl)-1H-imidazol-2-yl)-4-methyl-1-pyrrolidinyl)-2-oxo-1-(tetrahydro-2H-pyran-4-yl)ethyl)carbamate] | 0.0101 to 1 | 
COc1cccc2c(C(=O)N3[C@@H]4C[C@@H]4C[C@H]3c3ncc(C#Cc4ccc5cc(-c6cnc([C@@H]7C[C@H]8C[C@H]8N7C(=O)c7nc(Cl)cc8c(OC)cccc78)[nH]6)ccc5c4)[nH]3)nc(Cl)cc12 [Example 93, 3-Chloro-1-(((1R,3S,5R)-3-(4-(6-((2-((1R,3S,5R)-2-((3-chloro-5-methoxy-1-isoquinolinyl)carbonyl)-2-azabicyclo[3.1.0]hex-3-yl)-1H-imidazol-4-yl)ethynyl)-2-naphthyl)-1H-imidazol-2-yl)-2-azabicyclo[3.1.0]hex-2-yl)carbonyl)-5-methoxyisoquinoline] | 1.01 to 1000 | 40
COC(=O)N[C@H](C(=O)N1[C@@H]2C[C@@H]2C[C@H]1c1ncc(C#Cc2ccc3cc(-c4cnc([C@@H]5CC[C@H](C)N5C(=O)[C@@H](NC(=O)OC)C5CCOCC5)[nH]4)ccc3c2)[nH]1)C1CCOCC1 [Example 98, Methyl((1S)-2-((2S,5S)-2-(4-(6-((2-((1R,3S,5R)-2-((2S)-2-((methoxycarbonyl)amino)-2-(tetrahydro-2H-pyran-4-yl)acetyl)-2-azabicyclo[3.1.0]hex-3-yl)-1H-imidazol-4-yl)ethynyl)-2-naphthyl)-1H-imidazol-2-yl)-5-methyl-1-pyrrolidinyl)-2-oxo-1-(tetrahydro-2H-pyran-4-yl)ethyl)carbamate] | 0.0101 to 1 | 
COC(=O)N[C@H](C(=O)N1CCC[C@H]1c1nc2ccc(-c3ccc4cc(-c5ccc6nc([C@@H]7CCCN7C(=O)[C@@H](NC(=O)OC)C7CC7)[nH]c6c5)ccc4c3)cc2[nH]1)C1CC1 [Example 11, Dimethyl(2,6-naphthalenediylbis(1H-benzimidazole-5,2-diyl(2S)-2,1-pyrrolidinediyl((1S)-1-cyclopropyl-2-oxo-2,1-ethanediyl)))biscarbamate] | 0.0101 to 1 | 0.0182
COC(=O)N[C@@H](C(=O)N1CCC[C@H]1c1nc2cc(-c3ccc4ccc(-c5ccc6nc([C@@H]7CCCN7C(=O)[C@H](NC(=O)OC)C(C)C)[nH]c6c5)cc4c3)ccc2[nH]1)C(C)C [Example 14, Methyl((1R)-1-(((2S)-2-(5-(7-(2-((2S)-1-((2R)-2-((methoxycarbonyl)amino)-3-methylbutanoyl)-2-pyrrolidinyl)-1H-benzimidazol-5-yl)-2-naphthyl)-1H-benzimidazol-2-yl)-1-pyrrolidinyl)carbonyl)-2-methylpropyl)carbamate] | 1.01 to 1000 | 
